What was measured:
Assay type in all cases: cell-based, mouse
[1] = system: TNFα mRNA transcript; test: TNFα mRNA by quantitative real-time PCR in LPS-stimulated RAW macrophage cells; settings: RAW264.7 cells, 500 uM (0.5 mM) before LPS stimulation
Protocol: Quantitative Real time PCR: RAW264.7 cells were seeded at 1×10^6/well in […] plate the day before the treatment. The following day, the cells were treated with different concentration of hPUCLFA(D046) or 1% FA/DMSO (DMSO) as vehicle control for 4 hours; each treatment was in duplicate; then stimulated with LPS at 1 μg/ml (cat. No. L4391, Sigma) for 20 hours. Total RNA was isolated from cell pellets using Trizol (Cat. No. 15596-018, Invitrogen) as per manufacturer's instruction. The RNA pellets were resuspended in 50 μL of DEPC treated water and stored at −80° C. RNA concentration and purity was determined by spectrophotometry at 260 and 280 nm. […]
The RAW293 mouse macrophage cell model system is commonly used to assess anti-inflammatory activity of compounds. […] RAW293 cells were pretreated with hPULCFA-enriched extract followed by treatment with LPS for 24 hours after which mRNA transcript and protein levels of pro-inflammatory markers including the cytokines tumor necrosis factor alpha (TNFα) and interleukin-1 beta (IL-1β), iNOS as described above, cyclooxygenase 2 (COX2, the enzyme responsible for the production of pro-inflammatory eicosanoids from arachidonic acid) were assessed.

[2] = system: TNFα; test: TNFα protein by ELISA in LPS-stimulated RAW macrophage cells; settings: RAW293 cells, 0.5 mM before LPS stimulation
Protocol: ELISA for mouse TNF alpha: Raw cells were treated as described in real time PCR. Conditioned medium was collected. Cells was briefly washed with ice cold PBS and lysed with lysis buffer (Jerry's recipe); Protein in the cell lysate was quantified using the Bio-Rad Protein Assay (Bio-Rad, Hercules, Calif.). 50 ul of conditioned medium or 100 ug of cell lysate per well was used to determine the amount of TNF alpha as per manufactory's instruction (Cat. No. KMC3011, Invitrogen).
(§1) The RAW293 mouse macrophage cell model system is commonly used to assess anti-inflammatory activity of compounds. The cells are treated with lipopolysaccharide which induces a massive inflammatory response, of which compounds can be tested for their ability to protect against. RAW293 cells were pretreated with hPULCFA-enriched extract followed by treatment with LPS for 24 hours after which mRNA transcript and protein levels of pro-inflammatory markers including the cytokines tumor necrosis factor alpha (TNFα) and interleukin-1 beta (IL-1β), iNOS as described above, cyclooxygenase 2 (COX2, the enzyme responsible for the production of pro-inflammatory eicosanoids from arachidonic acid) were assessed.

[3] = system: IL-1β; test: IL-1β protein by ELISA in LPS-stimulated RAW macrophage cells; settings: RAW293 cells, 0.5 mM before LPS stimulation
Protocol: ELISA for mouse IL-1 beta: Raw cells were treated as described in real time PCR. 50 ul of conditioned medium or 100 ug of cell lysate was used to determine the amount of IL-1 beta as per manufactory's instruction (Cat. No. MLB00B, Quantikine)
as §1

SMILES: CCCC(O)C/C=C\C(O)/C=C\C/C=C\C/C=C\C/C=C\CCCCCCCCC(=O)O (stereo not drawn) [Compound D046-124]
- induction of TNFα transcripts [1]: prevented the induction
- TNFα protein level in conditioned media [2]: prevented the induction
- levels of IL-1β in conditioned media [3]: completely blocked

Reference: patent publication US20120136057A1, “HYDROXY FATTY ACID COMPOUNDS AND USES THEREOF FOR DISEASE TREATMENT AND DIAGNOSIS” (PHENOMENOME DISCOVERIES INC., priority 2009, published 2012)
